SMILES strings stand for the structures. pEC50: −log10 of the molar value.

19 compounds from patent publication US11866450B2, “Modulators of Cystic Fibrosis Transmembrane Conductance regulator, pharmaceutical compositions, methods of treatment, and process for making the modulators” (priority 2018, dated 2024) can be followed below.

The target of the assay is CFTR-mediated chloride transport (Homo sapiens, UniProt P13569). The format is cell-based. Particulars: enteroid cells incubated with test compound 18-24 hours, acute 10 μM forskolin and 300 nM Compound III; for Max. Activity: % of chloride transport with 3 μM Compound A, 3 μM Compound II and 300 nM acute Compound III triple combination control. The gist of the method: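 Membrane-potential fluorescence AUC over 15 min quantified CFTR chloride transport after acute forskolin (10 μM), IBMX (100 μM) and Compound III (300 nM) in chloride-free buffer. Human enteroid cells were pretreated with compound for 18–24 h; % Activity is relative to 3 μM Compound A + 3 μM Compound II + 300 nM Compound III.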
Chain of CFTR-mediated chloride transport (P13569 whole entry, looked up): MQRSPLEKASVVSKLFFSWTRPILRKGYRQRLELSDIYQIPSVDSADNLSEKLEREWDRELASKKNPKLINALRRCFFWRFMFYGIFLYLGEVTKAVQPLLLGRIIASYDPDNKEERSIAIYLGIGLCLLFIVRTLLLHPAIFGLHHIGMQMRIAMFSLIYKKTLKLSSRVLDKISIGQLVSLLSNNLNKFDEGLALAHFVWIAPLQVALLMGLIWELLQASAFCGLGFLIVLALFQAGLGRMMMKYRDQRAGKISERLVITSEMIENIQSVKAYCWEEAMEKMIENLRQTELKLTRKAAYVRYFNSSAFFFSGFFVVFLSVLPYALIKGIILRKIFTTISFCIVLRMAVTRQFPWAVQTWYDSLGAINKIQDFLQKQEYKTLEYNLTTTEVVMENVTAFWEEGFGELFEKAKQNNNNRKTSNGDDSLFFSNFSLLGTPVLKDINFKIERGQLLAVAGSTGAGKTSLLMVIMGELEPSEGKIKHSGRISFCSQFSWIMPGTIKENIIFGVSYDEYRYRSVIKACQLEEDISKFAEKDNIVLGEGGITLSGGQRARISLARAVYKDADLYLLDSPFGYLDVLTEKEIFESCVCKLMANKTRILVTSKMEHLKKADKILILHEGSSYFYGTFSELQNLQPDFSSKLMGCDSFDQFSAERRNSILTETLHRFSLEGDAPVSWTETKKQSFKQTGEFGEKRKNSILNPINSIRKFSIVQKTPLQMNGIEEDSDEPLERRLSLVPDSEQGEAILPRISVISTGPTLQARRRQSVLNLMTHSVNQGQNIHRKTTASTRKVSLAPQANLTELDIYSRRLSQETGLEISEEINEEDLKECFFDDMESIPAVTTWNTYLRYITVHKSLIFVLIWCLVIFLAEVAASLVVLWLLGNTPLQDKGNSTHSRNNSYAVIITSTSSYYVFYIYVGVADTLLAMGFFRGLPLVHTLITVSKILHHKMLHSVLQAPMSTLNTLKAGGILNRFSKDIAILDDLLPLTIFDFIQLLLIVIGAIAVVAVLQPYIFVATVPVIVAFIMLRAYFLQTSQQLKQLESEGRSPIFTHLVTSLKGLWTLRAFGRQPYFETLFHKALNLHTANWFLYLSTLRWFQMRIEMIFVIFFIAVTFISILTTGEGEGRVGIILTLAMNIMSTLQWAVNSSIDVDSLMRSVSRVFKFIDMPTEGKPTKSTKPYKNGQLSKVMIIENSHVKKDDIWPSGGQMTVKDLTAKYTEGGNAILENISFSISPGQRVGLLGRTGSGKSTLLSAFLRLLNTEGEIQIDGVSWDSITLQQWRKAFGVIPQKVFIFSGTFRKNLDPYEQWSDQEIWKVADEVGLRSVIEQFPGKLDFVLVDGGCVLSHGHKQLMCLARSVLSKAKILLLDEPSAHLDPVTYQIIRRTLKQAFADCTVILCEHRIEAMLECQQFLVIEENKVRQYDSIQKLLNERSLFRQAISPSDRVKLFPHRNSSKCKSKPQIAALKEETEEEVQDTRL

Take `CC1(C)C[C@H]2CCCCNc3ccc(cn3)S(=O)(=O)NC(=O)c3ccc(-n4ccc(OCC5C6(CC6)C56CC6)n4)nc3N1C2` (single isomer, unassigned) [Compound 120, 8-[3-({dispiro[2.0.2.1]heptan-7-yl}methoxy)-1H-pyrazol-1-yl]-12,12-dimethyl-2λ^6-thia-3,9,11,19,21-pentaazatetracyclo[18.2.2.111,14.05,10]pentacosa-1(23),5,7,9,20(24),21-hexaene-2,2,4-trione]: the pEC50 was over 6.00 and the “Max. Activity” value is reported as “++ (++ is 30-60%)”.

For the compound `CC1(C)C[C@H]2CCCCNc3ccc(cn3)S(=O)(=O)NC(=O)c3ccc(-n4ccc(OCC5C6(CC6)C56CC6)n4)nc3N1C2` (single isomer, unassigned) [Compound 121, 8-[3-({dispiro[2.0.2.1]heptan-7-yl}methoxy)-1H-pyrazol-1-yl]-12,12-dimethyl-2λ^6-thia-3,9,11,19,21-pentaazatetracyclo[18.2.2.111,14.05,10]pentacosa-1(23),5,7,9,20(24),21-hexaene-2,2,4-trione], the negative logarithm of the EC50 (pEC50) is over 6.00 and the “Max. Activity” value is “+++ (+++ is >60%)”.

Regarding `CC1(C)CC[C@H]2CCCNc3cccc(n3)S(=O)(=O)NC(=O)c3ccc(-n4ccc(OCC5C6(CC6)C56CC6)n4)nc3N21` (single isomer, unassigned) [Compound 124, 8-[3-({dispiro[2.0.2.1]heptan-7-yl}methoxy)-1H-pyrazol-1-yl]-12,12-dimethyl-2λ^6-thia-3,9,11,19,24-pentaazatetracyclo[18.3.1.05,10.011,15]tetracosa-1(23),5(10),6,8,20(24),21-hexaene-2,2,4-trione], the negative-log EC50 (pEC50) is over 6.00 and the “Max. Activity” value is given as “+++ (+++ is >60%)”.

As for `CC1(C)CC[C@H]2CCCNc3cccc(n3)S(=O)(=O)NC(=O)c3ccc(-n4ccc(OCC5C6(CC6)C56CC6)n4)nc3N21` (single isomer, unassigned) [Compound 125, 8-[3-({Dispiro[2.0.2.1]heptan-7-yl}methoxy)-1H-pyrazol-1-yl]-12,12-dimethyl-2λ^6-thia-3,9,11,19,24-pentaazatetracyclo[18.3.1.05,10.011,15]tetracosa-1(23),5(10),6,8,20(24),21-hexaene-2,2,4-trione], the negative logarithm of the EC50 (pEC50) was over 6.00 and the “Max. Activity” value is “+ (+ is <30%)”.

For the compound `CC(C)(C)CC[C@H]1CCN(c2ccc3c(n2)N2C[C@@H](CCCNc4cccc(n4)S(=O)(=O)NC3=O)CC2(C)C)C1=O` (single isomer, unassigned) [Compound 126], the negative-log EC50 (pEC50) was over 6.00 and the “Max. Activity” value is “++ (++ is 30-60%)”.

For the compound `CC(C)(C)CC[C@H]1CCN(c2ccc3c(n2)N2C[C@@H](CCCNc4cccc(n4)S(=O)(=O)NC3=O)CC2(C)C)C1=O` (single isomer, unassigned) [Compound 127], the pEC50 was over 6.00 and the “Max. Activity” value was “+++ (+++ is >60%)”.

`CC1(C)C[C@H]2CCCCn3cc(cn3)S(=O)(=O)NC(=O)c3ccc(-n4ccc(OCCC5(C(F)(F)F)CC5)n4)nc3N1C2` (single isomer, unassigned) [Compound 134, 21,21-Dimethyl-4-(3-{2-[1-(trifluoromethyl)cyclopropyl]ethoxy}-1H-pyrazol-1-yl)-10λ^6-thia-1,3,9,13,14-pentaazatetracyclo[17.2.1.111,14.02,7]tricosa-2,4,6,11(23),12-pentaene-8,10,10-trione]: the negative-log EC50 (pEC50) is over 6.00 and the “Max. Activity” value is listed as “+ (+ is <30%)”.

Regarding `CC1(C)C[C@H]2CCCCn3cc(cn3)S(=O)(=O)NC(=O)c3ccc(-n4ccc(OCCC5(C(F)(F)F)CC5)n4)nc3N1C2` (single isomer, unassigned) [Compound 135, 21,21-dimethyl-4-(3-{2-[1-(trifluoromethyl)cyclopropyl]ethoxy}-1H-pyrazol-1-yl)-10λ^6-thia-1,3,9,13,14-pentaazatetracyclo[17.2.1.111,14.02,7]tricosa-2,4,6,11(23),12-pentaene-8,10,10-trione], the pEC50 is over 6.00 and the “Max. Activity” value is on record as “+++ (+++ is >60%)”.

As for `CC1(C)CC[C@H]2CCCNc3cccc(n3)S(=O)(=O)NC(=O)c3ccc(-n4ccc(OCCC(C5CC5)C5CC5)n4)nc3N21` (single isomer, unassigned) [Compound 136, 8-[3-(3,3-dicyclopropylpropoxy)-1H-pyrazol-1-yl]-12,12-dimethyl-2λ^6-thia-3,9,11,19,24-pentaazatetracyclo[18.3.1.05,10.011,15]tetracosa-1(23),5(10),6,8,20(24),21-hexaene-2,2,4-trione], the pEC50 was over 6.00 and the “Max. Activity” value is “+++ (+++ is >60%)”.

As for `CC1(C)CC[C@H]2CCCNc3cccc(n3)S(=O)(=O)NC(=O)c3ccc(-n4ccc(OCCC(C5CC5)C5CC5)n4)nc3N21` (single isomer, unassigned) [Compound 137, 8-[3-(3,3-Dicyclopropylpropoxy)-1H-pyrazol-1-yl]-12,12-dimethyl-2λ^6-thia-3,9,11,19,24-pentaazatetracyclo[18.3.1.05,10.011,15]tetracosa-1(23),5(10),6,8,20(24),21-hexaene-2,2,4-trione], the negative-log EC50 (pEC50) is under 5.52 and the “Max. Activity” value is reported as “+ (+ is <30%)”.

Consider `CN1CCC[C@H]2CN(c3nc(-n4ccc(OCCC5(C(F)(F)F)CC5)n4)ccc3C(=O)NS(=O)(=O)c3cccc1n3)C(C)(C)C2` (single isomer, unassigned) [Compound 138, 12,12,18-Trimethyl-8-(3-{2-[1-(trifluoromethyl)cyclopropyl]ethoxy}-1H-pyrazol-1-yl)-2λ^6-thia-3,9,11,18,23-pentaazatetracyclo[17.3.1.111,14.05,10]tetracosa-1(23),5(10),6,8,19,21-hexaene-2,2,4-trione], for which the pEC50 is under 5.52 and the “Max. Activity” value is reported as “+ (+ is <30%)”.

Take `CN1CCC[C@H]2CN(c3nc(-n4ccc(OCCC5(C(F)(F)F)CC5)n4)ccc3C(=O)NS(=O)(=O)c3cccc1n3)C(C)(C)C2` (single isomer, unassigned) [Compound 139, 12,12,18-trimethyl-8-(3-{2-[1-(trifluoromethyl)cyclopropyl]ethoxy}-1H-pyrazol-1-yl)-2λ^6-thia-3,9,11,18,23-pentaazatetracyclo[17.3.1.111,14.05,10]tetracosa-1(23),5(10),6,8,19,21-hexaene-2,2,4-trione]: the pEC50 is over 6.00 and the “Max. Activity” value is recorded as “+++ (+++ is >60%)”.

For `CC(C)(C)CCC[C@H]1CCN(c2ccc3c(n2)N2C[C@@H](CCCNc4cccc(n4)S(=O)(=O)NC3=O)CC2(C)C)C1=O` (single isomer, unassigned) [Compound 145], the negative logarithm of the EC50 (pEC50) is over 6.00 and the “Max. Activity” value is “+++ (+++ is >60%)”.

Take `CC(C)(C)CCC[C@H]1CCN(c2ccc3c(n2)N2C[C@@H](CCCNc4cccc(n4)S(=O)(=O)NC3=O)CC2(C)C)C1=O` (single isomer, unassigned) [Compound 146]: the pEC50 is over 6.00 and the “Max. Activity” value is “+++ (+++ is >60%)”.

As to `Cc1ccc2nc1S(=O)(=O)NC(=O)c1ccc(-n3ccc(OCCC4(C(F)(F)F)CC4)n3)nc1N1C[C@H](CCCN2)CC1(C)C` (single isomer, unassigned) [Compound 148, 12,12,22-trimethyl-8-(3-{2-[1-(trifluoromethyl)cyclopropyl]ethoxy}-1H-pyrazol-1-yl)-2λ^6-thia-3,9,11,18,23-pentaazatetracyclo[17.3.1.111,14.05,10]tetracosa-1(23),5(10),6,8,19,21-hexaene-2,2,4-trione], the negative-log EC50 (pEC50) was under 5.52 and the “Max. Activity” value is reported as “+ (+ is <30%)”.

For `Cc1ccc2nc1S(=O)(=O)NC(=O)c1ccc(-n3ccc(OCCC4(C(F)(F)F)CC4)n3)nc1N1C[C@H](CCCN2)CC1(C)C` (single isomer, unassigned) [Compound 149, 12,12,22-trimethyl-8-(3-{2-[1-(trifluoromethyl)cyclopropyl]ethoxy}-1H-pyrazol-1-yl)-2λ^6-thia-3,9,11,18,23-pentaazatetracyclo[17.3.1.111,14.05,10]tetracosa-1(23),5(10),6,8,19,21-hexaene-2,2,4-trione], the pEC50 is over 6.00 and the “Max. Activity” value is recorded as “+++ (+++ is >60%)”.

Turning to `Cc1cc2nn1CCC[C@H]1CN(c3nc(-n4ccc(OCCC5(C(F)(F)F)CC5)n4)ccc3C(=O)NS2(=O)=O)C(C)(C)C1` (single isomer, unassigned) [Compound 150, 13,20,20-Trimethyl-4-(3-{2-[1-(trifluoromethyl)cyclopropyl]ethoxy}-1H-pyrazol-1-yl)-10λ^6-thia-1,3,9,14,22-pentaazatetracyclo[16.2.1.111,14.02,7]docosa-2,4,6,11(22),12-pentaene-8,10,10-trione], the negative logarithm of the EC50 (pEC50) is 5.52 to 6.00 and the “Max. Activity” value is reported as “+ (+ is <30%)”.

`Cc1cc2nn1CCC[C@H]1CN(c3nc(-n4ccc(OCCC5(C(F)(F)F)CC5)n4)ccc3C(=O)NS2(=O)=O)C(C)(C)C1` (single isomer, unassigned) [Compound 151, 13,20,20-trimethyl-4-(3-{2-[1-(trifluoromethyl)cyclopropyl]ethoxy}-1H-pyrazol-1-yl)-10λ^6-thia-1,3,9,14,22-pentaazatetracyclo[16.2.1.111,14.02,7]docosa-2,4,6,11(22),12-pentaene-8,10,10-trione]: the pEC50 is over 6.00 and the “Max. Activity” value is reported as “+++ (+++ is >60%)”.

Turning to `CC1(C)C[C@H]2CCCn3ccc(n3)S(=O)(=O)NC(=O)c3ccc(-n4ccc(OCCC(C5CC5)C5CC5)n4)nc3N1C2` (single isomer, unassigned) [Compound 153, 4-[3-(3,3-dicyclopropylpropoxy)-1H-pyrazol-1-yl]-20,20-dimethyl-10λ^6-thia-1,3,9,14,22-pentaazatetracyclo[16.2.1.111,14.02,7]docosa-2,4,6,11(22),12-pentaene-8,10,10-trione], the pEC50 is under 5.52 and the “Max. Activity” value is recorded as “+ (+ is <30%)”.
